The values below come from patent publication US20230075521A1, “RESVERATROL PHARMACEUTICAL COMPOSITIONS AND METHODS OF USE THEREOF” (priority 2021, published 2023).

Structures are written as SMILES.

The data set is described as follows: Mouse PK study, resveratrol in brain. It is filed as in vivo, CD-1 mice. The note with it: male mice, single dose 50 mg/kg oral, 30 min. The procedure:
For mouse PK studies, male CD-1 mice (Charles River Canada) were used. Animals were food fasted for 4 h prior to dosing and water fasted 1 h prior to dosing. […] At each time point (15 min, 30 min, 1 h, 4 h) 3 mice of each group were terminally bled via cardiac puncture under red light. Blood was collected into sodium-EDTA tubes under red light and spun at […] for 10 min at 6800×g. Plasma was collected and split into amber tubes. Both left and right brain were collected and snap-frozen in liquid nitrogen and stored at […] Drug concentrations were analyzed by liquid chromatography-mass spectrometry (LC-MS/MS) by KDM Laboratories Inc. For rat PK studies, male Sprague-Dawley rats (Charles River Canada) were used. […] Blood was collected under red light from the trunk at 30 min into K3EDTA tubes and centrifuged immediately at 4° C. for 10 min at 6800×g, and plasma collected into amber tubes. Brains were collected and snap-frozen in liquid nitrogen and stored at […] Drug concentration was analyzed by LC-MS/MS.

For `Oc1ccc(/C=C/c2cc(O)cc(O)c2)cc1` [RSV, (trans-)resveratrol], the “Resveratrol accumulation in the brain” value is “not detected in the brain”.
